Literature values, collected in patent US20240368262A1, “A MYOSTATIN PATHWAY INHIBITOR IN COMBINATION WITH A GLP-1 PATHWAY ACTIVATOR FOR USE IN TREATING METABOLIC DISORDERS” (SCHOLAR ROCK, INC., priority 2021, published 2024).

Test system: GIP and GLP-1 receptor
Conditions: Rosenstock et al., Lancet; cited from earlier work

For Tirzepatide, the body weight is listed as “reduce body weight” and the glycemic control is listed as “improve glycemic control”.
